In US20150217046A1, “DOSING REGIMENS FOR SUBCUTANEOUSLY INFUSIBLE ACIDIC COMPOSITIONS” (SynAgile Corporation, priority 2012, published 2015):
Read-outs that look alike come from different tables or passages of the source. One block for each compound: values may come before it.

How the values were obtained:
[1] = 0.44 M LDEE.HCl, pH 3.7±0.1, 4.0° C., 39 weeks, 3 samples
Method: The LD concentration was monitored in 3 samples of 0.44 M LDEE.HCl at pH 3.7±0.1 and 4.0° C.

[2] = initially about pH 3.7±0.2
Method: Such a pH can be maintained for example through co-dissolving citric acid and/or a citrate salt, e.g., monosodium citrate, for example to about 10-50 mM concentration. For infusion it is desired, in order to avoid acid-caused pain, to raise the pH at least to pH 2.4±0.3, for example to 2.4±0.3, 2.6±0.3, 2.8±0.3, 3.1±0.3, 3.4±0.3, 3.7±0.3 or to 4.0±0.3, for example by adding citric acid, monosodium citrate, or trisodium citrate.

[3] = 25° C., pH 7 or pH 5; cited from earlier work
[4] = Rate of hydrolysis of LD esters in solution; assay type: physicochemical; conditions: about pH 4.5, about 23° C.
Method: At a particular temperature and pH, the LDEs formed of LD and of different alcohols are hydrolyzed prior to their infusion at different rates. […] The rate of hydrolysis of LDE salts also depends on the anion, i.e., on the acid forming the LDE salt. LDE is hydrolyzed more rapidly when carboxylate anions and/or carboxylic acids replace the chloride anion or HCl. The rate of hydrolysis of the salt formed of LDEE and acetic acid can be about 3 times faster at about pH 4.5 at about 23° C. than that of LDEE.HCl, the salt formed of LDEE and HCl. The rate of hydrolysis at a particular pH and temperature can therefore depend on the buffering agent, e.g., citric acid and/or citrate anions, becoming faster when their concentration is elevated. Typically, the concentration of the buffering ions, i.e., the combined concentrations of citrates and citric acid, is between about 5 mM and 100 mM, for example between about 10 mM and 50 mM. The rate of hydrolysis can increase, for example, when the buffering citric acid-citrate concentration is increased.
In aqueous LDE salt pharmaceutical compositions, the hydrolysis rates generally decrease as the pH decreases, and the shelf life of the LDE salt consequently increases, unless the pH is about 1.7±0.5 or less. […] In acidic pharmaceutical compositions the amines of the LDEs are protonated, making the LDEs cations. […] The rates of hydrolysis generally increase with temperature, and may at least about double or about triple for each 10° C. increase, correspondingly decreasing upon cooling.

[5] = about 0.44 M LDEE.HCl infusible composition
[6] = about 1.0 M LDEE.HCl infusible composition
[7] = first infusion, continuous over 16 hours, 0.163 mL/hour, end of infusion

Structure (SMILES): CCOC(=O)[C@@H](N)Cc1ccc(O)c(O)c1.Cl [LDEE.HCl, hydrochloride salt of the ethyl ester of L-DOPA]
concentration of LD after refrigerated storage [1]: less than 2 mg/mL
Estimated operational life at 30° C. [2, 5]: >3 days
Estimated operational life at 37° C. [2, 5]: >2 days
Estimated storage life at 4° C. [2, 5]: >1.5 years
Estimated storage life at 25° C. [2, 5]: >1 months
Estimated operational life at 30° C. [2, 6]: >2 days
Estimated operational life at 37° C. [2, 6]: >1 days
Estimated storage life at 4° C. [2, 6]: >6 months
Estimated storage life at 25° C. [2, 6]: >2 weeks
pain during infusion (0.48 M LDEE.HCl pH 3.5, 1.25 millimoles per infusion, all three infusions): no pain at any time during the infusions
diameter of area with redder skin [7]: 3 cm
diameter of slightly protruding hard swelling [7]: 2.5 cm
diameter of palpable induration (first infusion, continuous over 16 hours, after 21 hours): 1 cm
diameter of induration (first infusion, continuous over 16 hours, after 2 days): 0.5 cm
skin symptoms (second infusion, intermittent over 10.5 hours, 0.35 mL/hour, with oral carbidopa, end of infusion): no skin symptoms at the end of the infusion
skin symptoms (second infusion, intermittent over 10.5 hours, with oral carbidopa, after 11 hours): a barely perceptible very lightly pink 2.5 cm diameter zone and a very mild soft palpable swelling
skin symptoms (second infusion, intermittent over 10.5 hours, with oral carbidopa, after 36 hours): only a barely palpable 3 cm long 1 cm wide soft horizontal induration
skin symptoms (third infusion, intermittent over 10.8 hours, 0.35 mL/hour, without oral carbidopa, end of infusion): no significant skin symptoms at the end of the infusion
skin symptoms (third infusion, intermittent, without oral carbidopa, four hours after end of infusion): very slightly more pink over a 2.5 cm diameter zone and there was a small (2 cm×1 cm) barely palpable induration
skin symptoms (third infusion, intermittent, without oral carbidopa, fourteen hours after end of infusion): the site could be recognized by its pink color

Structure (SMILES): N[C@@H](Cc1ccc(O)c(O)c1)C(=O)O [levodopa]
solubility [3]: ≤ 5 g per liter

rate of hydrolysis relative to LDEE.HCl [4]: about 3 times
Structure (SMILES): CC(=O)O.CCOC(=O)C(N)Cc1ccc(O)c(O)c1 (stereo not shown) [salt formed of LDEE and acetic acid]
